Results published in patent US20250017856A1, “CO-FORMULATION AND CO-DELIVERY OF IONIZABLE COLLOID FORMING DRUGS WITH NUCLEIC ACIDS” (THE GOVERNING COUNCIL OF THE UNIVERSITY OF TORONTO, priority 2023, published 2025).

What was measured:
[1] = Zeta potential (Malvern Zetasizer); assay type: physicochemical; settings: FxNP
Experimental: Zeta potential was measured by diluting FXNPs in phosphate to an ion concentration of 1 mM and using a Malvern Zetasizer Nano ZS instrument.

[2] = Hydrodynamic diameter and polydispersity index by dynamic light scattering; assay type: physicochemical; settings: FxNP
Source text: (§1) [NT] antisense (SEQ ID NO: 2): [NT] where “d” denotes a DNA base), siFLuc-2 (sense (SEQ ID NO: 3): [NT] antisense (SEQ ID NO: 4): [NT] where “d” denotes a DNA base and “m” indicates a 2'-O-methyl RNA base), sinLuc (sense (SEQ ID NO: 5): [NT] antisense SEQ ID NO: 6): [NT] where “d” denotes a DNA base), […]1 (sense (SEQ ID NO: 7): [NT] antisense (SEQ ID NO: 8): [NT] where “d” denotes a DNA base and “m” indicates a 2'-O-methyl RNA base), siNT (sense (SEQ ID NO: 9): [NT] antisense (SEQ ID NO: 10): [NT] where “d” denotes a DNA base and “m” indicates a 2'-O-methyl RNA base), mFLuc (EZ Cap Firefly Luciferase mRNA (5-moUTP), ApexBio), rRNA or RNA from Torula utilis yeast (T.U. RNA) was diluted in citrate buffer (50 or 25 mM, pH 4), malate buffer (25 mM, pH 4.0) or acetate buffer (25 mM, pH 4.0). A lipid/drug mix concentration of 5.5 mM was used with a total flow rate of 9 mL/min at a 3:1 ratio of aqueous to organic phase. […] After formulation, buffer exchange into PBS or Tris-buffered saline (TBS; pH 8.5) was performed using Amicon Ultra-4 centrifugal filters (molecular weight cut-off 10 kDa). Hydrodynamic diameter, polydispersity index (PDI), and scattering intensity were measured by dynamic light scattering (DLS) using a DynaPro Plate Reader II (Wyatt Technologies). The instrument was configured with a 60 mW 830 nm laser and a detector angle of 158°. A 25 μL sample of each formulation was pipetted into each well of a 384-well plate and measured with 20 acquisitions per sample at 25° C. […] Quant-iT RiboGreen reagent was added, and fluorescence intensity was quantified using a Tecan Infinite […] plate reader.

[3] = RNA encapsulation efficiency (modified Quant-iT RiboGreen assay) and loading; assay type: physicochemical; settings: for Encapsulation efficiency (%) / Small molecule drug mass % / siRNA mass %: FxNP; for siRNA encapsulation (in words): drugs that were not colloid formers
Source text: as §1

[4] = ionizable compound (fulvestrant analog); cited from earlier work

Structure (SMILES)	Zeta potential (mV) ([1]; siFLuc, DOPC)	Zeta potential (mV) ([1]; siFLuc, DSPC)	Zeta potential (mV) ([1]; sinLuc, DOPC)	Hydrodynamic diameter (nm) ([2]; siFLuc, DOPC)	PDI ([2]; siFLuc, DOPC)	Hydrodynamic diameter (nm) ([2]; siFLuc, DSPC)	PDI ([2]; siFLuc, DSPC)	Hydrodynamic diameter (nm) ([2]; sinLuc, DOPC)	PDI ([2]; sinLuc, DOPC)	Encapsulation efficiency (%) ([3]; siFLuc, DOPC)	Small molecule drug mass % ([3]; siFLuc, DOPC) [%]	siRNA mass % ([3]; siFLuc, DOPC) [%]	Encapsulation efficiency (%) ([3]; siFLuc, DSPC)	Small molecule drug mass % ([3]; siFLuc, DSPC) [%]	siRNA mass % ([3]; siFLuc, DSPC) [%]	Encapsulation efficiency (%) ([3]; sinLuc, DOPC)	Small molecule drug mass % ([3]; sinLuc, DOPC) [%]	siRNA mass % ([3]; sinLuc, DOPC) [%]	pKa [4]	also measured
CN[C@H]1CC[C@@H](c2ccc(Cl)c(Cl)c2)c2ccccc21 [sertraline, reference compound]	–	–	–	–	–	–	–	–	–	–	–	–	–	–	–	–	–	–	–	siRNA encapsulation (in words) [3]: did not encapsulate siRNA in nanoparticles or encapsulated siRNA at low efficiency
CNCCC=C1c2ccccc2CCc2ccccc21 [nortriptyline, reference compound]	–	–	–	–	–	–	–	–	–	–	–	–	–	–	–	–	–	–	–	siRNA encapsulation (in words) [3]: did not encapsulate siRNA in nanoparticles or encapsulated siRNA at low efficiency
CN(C)CCCN1c2ccccc2Sc2ccc(Cl)cc21 [chlorpromazine, reference compound]	–	–	–	–	–	–	–	–	–	–	–	–	–	–	–	–	–	–	–	siRNA encapsulation (in words) [3]: did not encapsulate siRNA in nanoparticles or encapsulated siRNA at low efficiency
CC12CCC3c4ccc(O)cc4CC(CCCCCCCCCS(=O)(CCCC(F)(F)C(F)(F)F)=NC(=O)CCn4ccnc4)C3C1CCC2O (stereo not shown) [7c]	−8.02	−10.15	−10.97	159.4	0.043	136.0	0.017	180.1	0.072	87.5	55.7	4.4	89.3	55.6	4.5	73.7	56.1	3.8	5.5	–
CC[C@H]1CN2CCc3cc(OC)c(OC)cc3[C@@H]2C[C@@H]1C[C@H]1NCCc2cc(OC)c(OC)cc21 [emetine, reference compound]	–	–	–	–	–	–	–	–	–	–	–	–	–	–	–	–	–	–	–	siRNA encapsulation (in words) [3]: did not encapsulate siRNA in nanoparticles or encapsulated siRNA at low efficiency
CC12CCC3c4ccc(O)cc4CC(CCCCCCCCCS(=O)(CCCC(F)(F)C(F)(F)F)=NC(=O)Cn4ccnc4)C3C1CCC2O (stereo not shown) [7b]	−7.61	−12.50	−11.53	289.8	0.003	141.0	0.019	296.2	0.012	81.7	55.4	4.2	85.5	55.2	4.4	84.9	55.3	4.4	5.4	–
CC12CCC3c4ccc(O)cc4CC(CCCCCCCCCS(=O)(CCCC(F)(F)C(F)(F)F)=NC(=O)CN4CCOCC4)C3C1CCC2O (stereo not shown) [7a]	−11.27	−12.97	−11.80	245.9	0.035	149.3	0.022	243.5	0.014	58.7	56.7	3.0	69.9	56.3	3.6	79.5	56.1	4.0	5.1	–

The next lines start with results.

Zeta potential (mV) ([1]; siFLuc, DOPC)	Zeta potential (mV) ([1]; siFLuc, DSPC)	Zeta potential (mV) ([1]; sinLuc, DOPC)	Hydrodynamic diameter (nm) ([2]; siFLuc, DOPC)	PDI ([2]; siFLuc, DOPC)	Hydrodynamic diameter (nm) ([2]; siFLuc, DSPC)	PDI ([2]; siFLuc, DSPC)	Hydrodynamic diameter (nm) ([2]; sinLuc, DOPC)	PDI ([2]; sinLuc, DOPC)	Encapsulation efficiency (%) ([3]; siFLuc, DOPC)	Small molecule drug mass % ([3]; siFLuc, DOPC) [%]	siRNA mass % ([3]; siFLuc, DOPC) [%]	Encapsulation efficiency (%) ([3]; siFLuc, DSPC)	Small molecule drug mass % ([3]; siFLuc, DSPC) [%]	siRNA mass % ([3]; siFLuc, DSPC) [%]	Encapsulation efficiency (%) ([3]; sinLuc, DOPC)	Small molecule drug mass % ([3]; sinLuc, DOPC) [%]	siRNA mass % ([3]; sinLuc, DOPC) [%]	Structure (SMILES)	pKa [4]	also measured
3.39	−4.92	0.01	186.2	0.022	170.8	0.076	181.8	0.042	96.6	56.0	4.8	94.7	56.0	4.7	94.9	56.0	4.7	CC12CCC3c4ccc(O)cc4CC(CCCCCCCCCS(=O)(CCCC(F)(F)C(F)(F)F)=NC(=O)CCN4CCCCC4)C3C1CCC2O (stereo not shown) [7g]	7.3	–
–	−7.54	–	–	–	160.5	0.183	–	–	–	–	–	86.4	55.3	4.4	–	–	–	CC12CCC3c4ccc(O)cc4CC(CCCCCCCCCS(=O)(CCCC(F)(F)C(F)(F)F)=NC(=O)CN4CCCC4)C3C1CCC2O (stereo not shown) [7h]	7.3	–
–	−3.56	–	–	–	337.1	0.225	–	–	–	–	–	72.0	56.2	3.7	–	–	–	CC12CCC3c4ccc(O)cc4CC(CCCCCCCCCS(=O)(CCCC(F)(F)C(F)(F)F)=NC(=O)CCN4CCCC4)C3C1CCC2O (stereo not shown) [7j]	7.6	–
−2.88	−11.13	−7.23	214.2	0.068	132.6	0.041	215.1	0.066	90.8	55.7	4.6	90.8	55.7	4.6	89.7	55.7	4.5	CC12CCC3c4ccc(O)cc4CC(CCCCCCCCCS(=O)(CCCC(F)(F)C(F)(F)F)=NC(=O)CN4CCCCC4)C3C1CCC2O (stereo not shown) [7e]	6.4	–
−5.09	−10.01	−3.97	155.5	0.041	147.8	0.075	161.0	0.039	91.3	54.3	4.8	94.8	54.2	4.9	92.4	54.3	4.8	CN(C)CC(=O)N=S(=O)(CCCCCCCCCC1Cc2cc(O)ccc2C2CCC3(C)C(O)CCC3C12)CCCC(F)(F)C(F)(F)F (stereo not shown) [7f]	7.0	nanoparticle formation with RNA cargos of varying molecular weight ([3]; siRNA, T.U. RNA, rRNA, mRNA): form nanoparticles encapsulating a range of RNA cargos
–	−3.98	–	–	–	338.6	0.218	–	–	–	–	–	52.8	57.2	2.7	–	–	–	CN1CCN(CC(=O)N=S(=O)(CCCCCCCCCC2Cc3cc(O)ccc3C3CCC4(C)C(O)CCC4C23)CCCC(F)(F)C(F)(F)F)CC1 (stereo not shown) [7i]	7.4	–
–	−8.53	–	–	–	426.9	0.060	–	–	–	–	–	80.2	55.1	4.2	–	–	–	CN(C)CCC(=O)N=S(=O)(CCCCCCCCCC1Cc2cc(O)ccc2C2CCC3(C)C(O)CCC3C12)CCCC(F)(F)C(F)(F)F (stereo not shown) [7k]	7.8	–
–	−6.62	–	–	–	447.8	Multimodal	–	–	–	–	–	88.1	53.4	4.7	–	–	–	CC12CCC3c4ccc(O)cc4CC(CCCCCCCCCS(=O)(CCCC(F)(F)C(F)(F)F)=NC(=O)CN)C3C1CCC2O (stereo not shown) [7m]	8.1	–
–	−2.05	–	–	–	539.2	Multimodal	–	–	–	–	–	87.6	54.9	4.5	–	–	–	CC12CCC3c4ccc(O)cc4CC(CCCCCCCCCS(=O)(CCCC(F)(F)C(F)(F)F)=NC(=O)C[N+](C)(C)C)C3C1CCC2O (stereo not shown) [7l]	–	–
